Values quoted from earlier work as cited in patent publication US8591947B2, “Dual controlled release dosage form” (Osmotica Kereskedelmi és Szolgáltató KFT, priority 2001, dated 2013).
Where a name gives a salt, the structure may show the parent alone.

Structure (SMILES)	Solubility of component in water (U.S.P. term)
CCN(C)C(=O)Oc1cccc([C@H](C)N(C)C)c1 [rivastigmine hydrogen tartrate]	very soluble
CCC(=O)O[C@@H](O[P@](=O)(CCCCc1ccccc1)CC(=O)N1C[C@H](C2CCCCC2)C[C@H]1C(=O)O)C(C)C [fosinopril sodium]	soluble
COc1ccc2c3c1O[C@H]1C[C@@H](O)C=C[C@@]31CCN(C)C2 [galantamine HBr]	sparingly soluble
O=c1n(CCCN2CCN(c3cccc(Cl)c3)CC2)nc2ccccn12 [trazodone HCl]	sparingly soluble
C[C@H](CS)C(=O)N1CCC[C@H]1C(=O)O [captopril]	freely soluble
CCOC(=O)[C@H](CCc1ccccc1)N[C@@H](C)C(=O)N1[C@H](C(=O)O)C[C@@H]2CCC[C@@H]21 [ramipril]	slightly soluble
CC(C)NCC(O)COc1cccc2[nH]ccc12 (stereo not shown) [pindolol]	practically insoluble
CCC(=O)O[C@](Cc1ccccc1)(c1ccccc1)[C@H](C)CN(C)C.Cl [propoxiphene HCl]	freely soluble
OCc1cc(C(O)CNCCCCCCOCCCCc2ccccc2)ccc1O (stereo not shown) [salmeterol]	sparingly soluble
OC(Cn1cncn1)(Cn1cncn1)c1ccc(F)cc1F [fluconazole]	slightly soluble
CS(=O)(=O)c1ccc(C2=C(c3ccccc3)C(=O)OC2)cc1 [rofecoxib]	practically insoluble
O=C1N=C([O-])NC1(c1ccccc1)c1ccccc1.[Na+] [phenyloin sodium]	soluble
CN[C@H]1CC[C@@H](c2ccc(Cl)c(Cl)c2)c2ccccc21 [sertraline HCl]	slightly soluble
CC[C@H](C)C(=O)O[C@H]1C[C@H](O)C=C2C=C[C@H](C)[C@H](CC[C@@H](O)C[C@@H](O)CC(=O)O)[C@H]21 [pravastatin sodium]	soluble
COc1cc(N)c(Cl)cc1C(=O)NC1CCN(CCCOc2ccc(F)cc2)CC1OC (stereo not shown) [cisapride monohydrate]	practically insoluble
Cc1ccc(-c2cc(C(F)(F)F)nn2-c2ccc(S(N)(=O)=O)cc2)cc1 [celecoxib]	practically insoluble
COc1cccc(C2(O)CCCCC2CN(C)C)c1 (stereo not shown) [tramadol HCl]	freely soluble
CCc1ccc(CCOc2ccc(CC3SC(=O)NC3=O)cc2)nc1 (stereo not shown) [pioglitazone HCl]	practically insoluble
NC(=O)N1c2ccccc2C=Cc2ccccc21 [carbamazepine]	practically insoluble
Clc1cccc(Cl)c1N=C1NCCN1 [clonidine HCl]	soluble
CNC(=C[N+](=O)[O-])NCCSCc1ccc(CN(C)C)o1 [ranitidine HCl]	very soluble
CC(C)Cc1ccc(C(C)C(=O)O)cc1 (stereo not shown) [ibuprofen]	very slightly soluble

Structure (SMILES)	Solubility of component in water (U.S.P. term)
CCCCc1nc(Cl)c(CO)n1Cc1ccc(-c2ccccc2-c2nn[nH]n2)cc1 [losartan potassium]	freely soluble
CC(C)(C)NCC(O)c1ccc(O)c(CO)c1 (stereo not shown) [albuterol]	sparingly soluble
CC(NC(C)(C)C)C(=O)c1cccc(Cl)c1 (stereo not shown) [bupropion HCl]	soluble
NCCCC[C@H](N[C@@H](CCc1ccccc1)C(=O)O)C(=O)N1CCC[C@H]1C(=O)O [lisinopril]	soluble
COC(=O)[C@H](c1ccccc1Cl)N1CCc2sccc2C1 [clopidogrel bisulfate]	practically insoluble
COc1ccc2c3c1O[C@H]1C(=O)CC[C@H]4[C@@H](C2)N(C)CC[C@]314.O=C(O)C(O)C(O)C(=O)O [hydrocodone bitartrate]	soluble
CN(C)CCC=C1c2ccccc2CCc2ccccc21 [amitriptyline]	freely soluble
CCOC(=O)[C@H](CCc1ccccc1)N[C@H]1CCc2ccccc2N(CC(=O)O)C1=O [benazepril]	soluble
C[C@]12C=CC(=O)C=C1CC[C@@H]1[C@@H]2C(=O)C[C@@]2(C)[C@H]1CC[C@]2(O)C(=O)CO [prednisone]	very slightly soluble
COc1ccc2[nH]c([S+]([O-])Cc3ncc(C)c(OC)c3C)nc2c1 (stereo not shown) [omeprazole]	very slightly soluble
Nc1nc2c(ncn2COCCO)c(=O)[nH]1 [acyclovir]	slightly soluble
OCCOCCN1CCN(C(c2ccccc2)c2ccc(Cl)cc2)CC1 (stereo not shown) [hydroxyzine]	very soluble
Cc1c(OCC(F)(F)F)ccnc1C[S+]([O-])c1nc2ccccc2[nH]1 (stereo not shown) [lansoprazole]	practically insoluble
CC(C)NCC(O)COc1cccc2ccccc12 (stereo not shown) [propranolol HCl]	soluble
COc1cc2nc(N3CCN(C(=O)C4COc5ccccc5O4)CC3)nc(N)c2cc1OC (stereo not shown) [doxazosin mesylate]	slightly soluble
CN(CCOc1ccc(CC2SC(=O)NC2=O)cc1)c1ccccn1 (stereo not shown) [rosiglitazone maleate]	soluble
CC(=O)Nc1ccc(O)cc1 [acetaminophen]	very slightly soluble
COc1ccc(Cl)cc1C(=O)NCCc1ccc(S(=O)(=O)NC(=O)NC2CCCCC2)cc1 [glyburide]	practically insoluble
CCOC(=O)C1=C(COCCN)NC(C)=C(C(=O)OC)C1c1ccccc1Cl (stereo not shown) [amlodipine besylate]	slightly soluble
CCOC(=O)[C@H](CCc1ccccc1)N[C@@H](C)C(=O)N1CCC[C@H]1C(=O)O [enalapril maleate]	sparingly soluble
COc1ccc2c3c1O[C@H]1C(=O)CC[C@@]4(O)[C@@H](C2)N(C)CC[C@]314 [oxycodone]	soluble
CCOC(=O)C1=C(C)NC(C)=C(C(=O)OC)C1c1cccc(Cl)c1Cl (stereo not shown) [felodipine]	practically insoluble

Structure (SMILES)	Solubility of component in water (U.S.P. term)
CNS(=O)(=O)Cc1ccc2[nH]cc(CCN(C)C)c2c1 [sumatriptan]	soluble
CC(CN1c2ccccc2Sc2ccccc21)N(C)C (stereo not shown) [promethazine HCl]	soluble
Cl.O=C(c1ccc(OCCN2CCCCC2)cc1)c1c(-c2ccc(O)cc2)sc2cc(O)ccc12 [ralozifene HCL]	very slightly soluble
Cc1cccc(CN2CCN(C(c3ccccc3)c3ccc(Cl)cc3)CC2)c1 (stereo not shown) [meclizine HCl]	soluble
Oc1ncnc2[nH]ncc12 [allopurinol]	very slightly soluble
CCC(=O)O[C@]1(C(=O)SCF)[C@H](C)C[C@H]2[C@@H]3C[C@H](F)C4=CC(=O)C=C[C@]4(C)[C@@]3(F)[C@@H](O)C[C@@]21C [fluticasone propionate]	practically insoluble
CCCc1nn(C)c2c(=O)[nH]c(-c3cc(S(=O)(=O)N4CCN(C)CC4)ccc3OCC)nc12 [sildenafil citrate]	slightly soluble
CN(C)CCCC1(c2ccc(F)cc2)OCc2cc(C#N)ccc21 (stereo not shown) [citalopram]	sparingly soluble
Fc1ccc([C@@H]2CCNC[C@H]2COc2ccc3c(c2)OCO3)cc1 [paroxetine HCl]	slightly soluble
CC12CC3CC(C)(C1)CC(N)(C3)C2 [memantine HCl]	slightly soluble
COCCc1ccc(OCC(O)CNC(C)C)cc1 (stereo not shown) [metoprolol tartrate]	very soluble
O=C1CC2(CCCC2)CC(=O)N1CCCCN1CCN(c2ncccn2)CC1 [buspirone HCl]	freely soluble
CCOC(=O)[C@H](CCc1ccccc1)N[C@@H](C)C(=O)N1Cc2ccccc2C[C@H]1C(=O)O [quinapril]	freely soluble
COc1ccc([C@@H]2Sc3ccccc3N(CCN(C)C)C(=O)[C@@H]2OC(C)=O)cc1 [diltiazem HCl]	freely soluble
CN/C(=N/CCSCc1nc[nH]c1C)NC#N [cimetidine]	sparingly soluble
NCC1(CC(=O)O)CCCCC1 [gabapentin]	freely soluble
COc1ccccc1OCCNCC(O)COc1cccc2[nH]c3ccccc3c12 (stereo not shown) [carvedilol]	practically insoluble
C[C@H]1c2cccc(O)c2C(=O)C2=C(O)[C@]3(O)C(=O)C(C(N)=O)=C(O)[C@@H](N(C)C)[C@@H]3[C@@H](O)[C@@H]21 [doxycycline hydrate]	soluble
O=[N+]([O-])O[C@@H]1CO[C@H]2[C@@H]1OC[C@@H]2O [isosorbide mononitrate]	freely soluble
Cc1cc2c(s1)Nc1ccccc1N=C2N1CCN(C)CC1 [olanzapine]	practically insoluble
